ChEMBL document CHEMBL3351465, “Discovery of functionalized bisimidazoles bearing cyclic aliphatic-phenyl motifs as HCV NS5A inhibitors” (Bioorg Med Chem Lett, 2014)
≈ marks a conversion by molar mass, not a printed value. Values belong to the compound of their own block, whether it stands above or below them.

Experiments:
[1] = Inhibition of NS5A in HCV genotype-1a infected in human HuH7 cells by luciferase reporter gene assay; type: cell-based, Hepatitis C virus subtype 1a; details: Hepatitis C virus, Huh-7
[2] = Inhibition of HCV genotype-1a NS5A; parameters: species or system Hepatitis C virus subtype 1a
[3] = Inhibition of HCV genotype-1b NS5A; parameters: species or system Hepatitis C virus subtype 1b
[4] = Inhibition of NS5A in HCV genotype-1b infected in human HuH7 cells by luciferase reporter gene assay; type: cell-based, Hepatitis C virus subtype 1b; details: Hepatitis C virus, Huh-7
[5] = Tmax in Sprague-Dawley rat at 10 mg/kg, po; type: ADME, organism-based; parameters: dose 10 mg/kg, route oral; details: in vivo
[6] = Oral bioavailability in Sprague-Dawley rat at 10 mg/kg; type: ADME, organism-based; details: in vivo
[7] = Cmax in Sprague-Dawley rat at 10 mg/kg, po; type: ADME, organism-based; parameters: dose 10 mg/kg, route oral; details: in vivo
[8] = AUClast in Sprague-Dawley rat at 2 mg/kg, iv; type: ADME, organism-based; parameters: time 0 - last, dose 2 mg/kg, route intravenous; details: plasma
[9] = AUClast in Sprague-Dawley rat at 10 mg/kg, po; type: ADME, organism-based; parameters: time 0 - last, dose 10 mg/kg, route oral; details: plasma
[10] = Half life in Sprague-Dawley rat at 2 mg/kg, iv; type: ADME, organism-based; parameters: dose 2 mg/kg, route intravenous; details: in vivo
[11] = Volume of distribution at steady state in Sprague-Dawley rat at 2 mg/kg, iv; type: ADME, organism-based; parameters: dose 2 mg/kg, route intravenous; details: in vivo, read-out: Vdss
[12] = Clearance in Sprague-Dawley rat at 2 mg/kg, iv; type: ADME, organism-based; parameters: dose 2 mg/kg, route intravenous; details: in vivo
[13] = Plasma concentration in Sprague-Dawley rat at 10 mg/kg, po after 4 hrs; type: ADME, organism-based; parameters: dose 10 mg/kg, route oral
[14] = Drug uptake in Sprague-Dawley rat liver at 10 mg/kg, po after 4 hrs; type: ADME, organism-based; parameters: dose 10 mg/kg, route oral; details: read-out: Drug uptake
[15] = Solubility of the compound at pH 7.4 by UV detection method; type: physicochemical; details: buffer
[16] = Plasma concentration in Sprague-Dawley rat […] at 5 mg/kg, po after 4 hrs; type: ADME, organism-based; parameters: dose 5 mg/kg, route oral
[17] = Half life in Sprague-Dawley rat at 1 mg/kg, iv; type: ADME, organism-based; parameters: dose 1 mg/kg, route intravenous; details: in vivo
[18] = Volume of distribution at steady state in Sprague-Dawley rat at 1 mg/kg, iv; type: ADME, organism-based; parameters: dose 1 mg/kg, route intravenous; details: in vivo, read-out: Vdss
[19] = Cmax in Sprague-Dawley rat at 5 mg/kg, po; type: ADME, organism-based; parameters: dose 5 mg/kg, route oral; details: in vivo
[20] = AUClast in Sprague-Dawley rat at 5 mg/kg, po; type: ADME, organism-based; parameters: time 0 - last, dose 5 mg/kg, route oral; details: plasma
[21] = Oral bioavailability in Sprague-Dawley rat at 5 mg/kg; type: ADME, organism-based; details: in vivo
[22] = Drug uptake in Sprague-Dawley rat liver at 5 mg/kg, po after 4 hrs; type: ADME, organism-based; parameters: dose 5 mg/kg, route oral; details: read-out: Drug uptake
[23] = Clearance in Sprague-Dawley rat at 1 mg/kg, iv; type: ADME, organism-based; parameters: dose 1 mg/kg, route intravenous; details: in vivo
[24] = Tmax in Sprague-Dawley rat at 5 mg/kg, po; type: ADME, organism-based; parameters: dose 5 mg/kg, route oral; details: in vivo
[25] = AUClast in Sprague-Dawley rat at 1 mg/kg, iv; type: ADME, organism-based; parameters: time 0 - last, dose 1 mg/kg, route intravenous; details: plasma
[26] = Plasma concentration in Sprague-Dawley rat […] at 100 mg/kg, po after 4 hrs; type: ADME, organism-based; parameters: dose 100 mg/kg, route oral
[27] = Clearance in cynomolgus monkey at 1 mg/kg, iv; type: ADME, organism-based, Macaca fascicularis; parameters: dose 1 mg/kg, route intravenous; details: in vivo
[28] = Tmax in Sprague-Dawley rat at 100 mg/kg, po; type: ADME, organism-based; parameters: dose 100 mg/kg, route oral; details: in vivo
[29] = Oral bioavailability in cynomolgus monkey at 5 mg/kg; type: ADME, organism-based, Macaca fascicularis; details: in vivo
[30] = AUClast in cynomolgus monkey at 1 mg/kg, iv; type: ADME, organism-based, Macaca fascicularis; parameters: dose 1 mg/kg, route intravenous, time 0 - last; details: plasma
[31] = Half life in cynomolgus monkey at 1 mg/kg, iv; type: ADME, organism-based, Macaca fascicularis; parameters: dose 1 mg/kg, route intravenous; details: in vivo
[32] = Tmax in cynomolgus monkey at 5 mg/kg, po; type: ADME, organism-based, Macaca fascicularis; parameters: dose 5 mg/kg, route oral; details: in vivo
[33] = Cmax in cynomolgus monkey at 5 mg/kg, po; type: ADME, organism-based, Macaca fascicularis; parameters: dose 5 mg/kg, route oral; details: in vivo
[34] = AUClast in Sprague-Dawley rat at 100 mg/kg, po; type: ADME, organism-based; parameters: time 0 - last, dose 100 mg/kg, route oral; details: plasma
[35] = Volume of distribution at steady state in cynomolgus monkey at 1 mg/kg, iv; type: ADME, organism-based, Macaca fascicularis; parameters: dose 1 mg/kg, route intravenous; details: in vivo, read-out: Vdss
[36] = AUClast in cynomolgus monkey at 5 mg/kg, po; type: ADME, organism-based, Macaca fascicularis; parameters: time 0 - last, dose 5 mg/kg, route oral; details: plasma
[37] = Cmax in Sprague-Dawley rat at 100 mg/kg, po; type: ADME, organism-based; parameters: dose 100 mg/kg, route oral; details: in vivo

EC50 [1]: 0.079 nM
EC50 [2]: 0.05 nM
EC50 [3]: 0.009 nM
EC50 [4]: 0.009 nM
Structure (SMILES): COC(=O)N[C@@H](C(=O)N1CCC[C@H]1c1ncc(-c2ccc(-c3ccc(-c4cnc([C@@H]5CCCN5C(=O)[C@H](NC(=O)OC)c5ccccc5)[nH]4)cc3)cc2)[nH]1)c1ccccc1

EC50 [1]: 38 nM
Tmax [5]: 0.67 h
bioavailability [6]: 1.2%
Cmax [7]: 41.5 ng/mL
AUC(0-t) [8]: 2060 ng·h/mL
AUC(0-t) [9]: 109 ng·h/mL
half-life [10]: 1.9 h
Vd [11]: 1.39 L/kg
clearance [12]: 17.7 mL/min/kg
concentration at 4 h [13]: 8.4 ng/mL
EC50 [4]: 0.095 nM
concentration at 4 h [14]: 4 ng/mL
Structure (SMILES): COC(=O)N[C@@H](C(=O)N1CCC[C@H]1c1ncc(-c2ccc(N3CCC(c4cnc([C@@H]5CCCN5C(=O)[C@H](NC(=O)OC)c5ccccc5)[nH]4)CC3)c(F)c2)[nH]1)c1ccccc1

EC50 [1]: 14 nM
EC50 [4]: 0.033 nM
Structure (SMILES): COC(=O)N[C@@H](C(=O)N1CCC[C@H]1c1ncc(-c2cc(F)c(N3CCC(c4cnc([C@@H]5CCCN5C(=O)[C@H](NC(=O)OC)c5ccccc5)[nH]4)CC3)c(F)c2)[nH]1)c1ccccc1

EC50 [1]: 3.8 nM
solubility [15]: 87.5 µg/mL (≈ 112 µM)
EC50 [4]: 0.054 nM
Structure (SMILES): COC(=O)N[C@H](C(=O)N1CCC[C@H]1c1ncc(-c2cc(F)c(N3CCC(c4cnc([C@@H]5CCCN5C(=O)[C@@H](NC(=O)OC)C(C)C)[nH]4)CC3)c(F)c2)[nH]1)C(C)C

EC50 [1]: > 100 nM
EC50 [4]: > 3.7 nM
Structure (SMILES): COC(=O)N[C@@H](C(=O)N1CCC[C@H]1c1ncc(-c2cc(F)c(N3CCC(c4cnc([C@@H]5CCCN5C(=O)[C@H](NC(=O)OC)C(C)C)[nH]4)CC3)c(F)c2)[nH]1)C(C)C

EC50 [1]: > 100 nM
EC50 [4]: 0.081 nM
Structure (SMILES): COC(=O)N[C@H](C(=O)N1CCC[C@H]1c1ncc(-c2cc(F)c(N3CCC(C)(c4cnc([C@@H]5CCCN5C(=O)[C@@H](NC(=O)OC)C(C)C)[nH]4)CC3)c(F)c2)[nH]1)C(C)C

EC50 [1]: 5.2 nM
EC50 [4]: 0.061 nM
Structure (SMILES): COC(=O)N[C@@H](C(=O)N1CCC[C@H]1c1ncc(-c2ccc([C@H]3CC[C@H](c4cnc([C@@H]5CCCN5C(=O)[C@H](NC(=O)OC)c5ccccc5)[nH]4)CC3)cc2)[nH]1)c1ccccc1

EC50 [1]: 2 nM
concentration at 4 h [16]: 108 ng/mL
half-life [17]: 1.33 h
Vd [18]: 1.53 L/kg
Cmax [19]: 554 ng/mL
AUC(0-t) [20]: 1540 ng·h/mL
bioavailability [21]: 44.2%
concentration at 4 h [22]: 665 ng/mL
clearance [23]: 23.7 mL/min/kg
Tmax [24]: 0.67 h
solubility [15]: 66.3 µg/mL (≈ 89 µM)
AUC(0-t) [25]: 706 ng·h/mL
EC50 [4]: 0.05 nM
Structure (SMILES): COC(=O)N[C@H](C(=O)N1CCC[C@H]1c1ncc(-c2ccc([C@H]3CC[C@H](c4cnc([C@@H]5CCCN5C(=O)[C@@H](NC(=O)OC)C(C)C)[nH]4)CC3)cc2)[nH]1)C(C)C

EC50 [1]: > 100 nM
EC50 [4]: 1.3 nM
Structure (SMILES): COC(=O)N[C@H](C(=O)N1CCC[C@H]1c1ncc(-c2ccc([C@H]3CC[C@](C)(c4cnc([C@@H]5CCCN5C(=O)[C@@H](NC(=O)OC)C(C)C)[nH]4)CC3)cc2)[nH]1)C(C)C

concentration at 4 h [26]: 15800 ng/mL
EC50 [1]: 1.4 nM
concentration at 4 h [16]: 653 ng/mL
half-life [17]: 1.2 h
clearance [27]: 6.5 mL/min/kg
Vd [18]: 1.31 L/kg
Tmax [28]: 2 h
Cmax [19]: 980 ng/mL
bioavailability [29]: 61.1%
AUC(0-t) [30]: 2570 ng·h/mL
AUC(0-t) [20]: 6580 ng·h/mL
half-life [31]: 1.24 h
bioavailability [21]: 124%
concentration at 4 h [22]: 2590 ng/mL
Tmax [32]: 4 h
clearance [23]: 15.7 mL/min/kg
Tmax [24]: 1.17 h
solubility [15]: 45 µg/mL (≈ 58.4 µM)
Cmax [33]: 1400 ng/mL
AUC(0-t) [34]: 242000 ng·h/mL
AUC(0-t) [25]: 1050 ng·h/mL
EC50 [4]: 0.06 nM
Vd [35]: 0.64 L/kg
AUC(0-t) [36]: 7930 ng·h/mL
Cmax [37]: 19100 ng/mL
Structure (SMILES): COC(=O)N[C@H](C(=O)N1CCC[C@H]1c1ncc(-c2ccc(C34CCC(c5cnc([C@@H]6CCCN6C(=O)[C@@H](NC(=O)OC)C(C)C)[nH]5)(CC3)CC4)cc2)[nH]1)C(C)C

EC50 [1]: 34 nM
EC50 [4]: 0.09 nM
Structure (SMILES): COC(=O)N[C@H](C(=O)N1CCC[C@H]1c1ncc(-c2cc(F)c(N3CCC(c4cnc([C@@H]5CCCCN5C(=O)[C@@H](NC(=O)OC)C(C)C)[nH]4)CC3)c(F)c2)[nH]1)C(C)C

EC50 [1]: 38 nM
EC50 [4]: 0.05 nM
Structure (SMILES): COC(=O)N[C@@H](C(=O)N1CCC[C@H]1c1ncc(-c2cc(F)c(N3CCC(c4cnc([C@@H]5COCCN5C(=O)[C@H](NC(=O)OC)c5ccccc5)[nH]4)CC3)c(F)c2)[nH]1)c1ccccc1

EC50 [1]: > 100 nM
EC50 [4]: 0.54 nM
Structure (SMILES): COC(=O)N[C@H](C(=O)N(C)[C@@H](C)c1ncc(C2CCN(c3c(F)cc(-c4cnc([C@@H]5CCCN5C(=O)[C@@H](NC(=O)OC)C(C)C)[nH]4)cc3F)CC2)[nH]1)C(C)C
